Measured values reported in PMC7176092, “Development of the first in vivo GPR17 ligand through an iterative drug discovery pipeline: A novel disease-modifying strategy for multiple sclerosis” (PLoS ONE, 2020).
Values joined by “and” are separate entries in the source; they are usually repeats but may differ in a detail not shown here. Equal values may be shown once. Read-outs that look alike come from different tables or passages of the source.

Columns and labels:
[1] = target: T1, human GPR17 (Homo sapiens, UniProt Q13304); assay: [35S]GTPγS binding assay; type: biochemical
T1 construct: HA; expressed in transfected cells
T1 sequence (Q13304 29-367): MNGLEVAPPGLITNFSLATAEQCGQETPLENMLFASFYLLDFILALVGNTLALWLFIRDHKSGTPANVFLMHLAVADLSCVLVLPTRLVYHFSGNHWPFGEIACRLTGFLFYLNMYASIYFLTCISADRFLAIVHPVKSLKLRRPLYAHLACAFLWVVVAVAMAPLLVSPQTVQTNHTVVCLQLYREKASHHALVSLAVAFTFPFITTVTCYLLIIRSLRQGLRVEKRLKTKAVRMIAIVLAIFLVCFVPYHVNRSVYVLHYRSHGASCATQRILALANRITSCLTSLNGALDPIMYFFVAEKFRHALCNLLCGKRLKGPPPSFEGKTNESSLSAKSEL
Experimental: [^35S]GTPγS binding assays were carried out as previously described. Briefly, control and astrocytoma 1321N1 cells stably transfected with human pcDNA3.1 (control cells) and human HA-tag GPR17 were homogenized in 5 mM Tris/HCl and 2 mM EDTA (pH 7.4) and centrifuged at 48,000g for 15 min at 4°C. The resulting pellets were washed in 50 mM Tris/HCl and 10 mM MgCl2 (pH 7.4). After protein dosage, aliquots of cell membranes were incubated with increasing concentrations of each investigated ligand (1 pM–10 μM) and GTPγS binding to activated G-proteins was quantified as previously described. Compounds were purchased from two external providers, i.e., Ambinter (Ambinter c/o Greenpharma, Orléans, France http://www.ambinter.com/) and Asinex (http://www.asinex.com/).
For analysis and graphic presentation of [^35S]GTPγS binding data, a nonlinear multipurpose curve fitting computer program (Graph-Pad Prism) was used. All data are presented as the mean ± SEM of three different experiments.
The selected 15 molecules were evaluated in our in-house [^35S]GTPγS functional assay in membranes from cells transfected with human GPR17. […] Moreover, this assay has been already successfully used in the past to measure the ability of both endogenous and novel synthetic compounds to activate GPR17 [25, 31]. All tested molecules were able to potently activate GPR17 with nanomolar/sub-nanomolar affinities. Concentration-response curves obtained for each selected compound are reported in S4 Fig.

[2] = In vivo mouse DMPK study, single 1 mg/kg subcutaneous dose
Experimental: In vivo DMPK studies were performed as an external service by Aptuit (Verona, Italy) according to standard procedures.
Two compounds were tested in a single dose pharmacokinetic (PK) study in mouse, in which a 1 mg/kg single dose solution (15% Ethanol, 85% PEG400) was administered by subcutaneous injection to naïve CD1 male mice from accredited supplier (n = 3), weighed prior to dosing. Blood samples were collected for 8 time-points (0.25, 0.50, 1, 2, 4, 6, 8, 24 hours).
Plasma samples were prepared and diluted according standard in-house procedures and stored at approximately -20°C, pending analysis. Briefly, blood samples were collected into tubes containing anticoagulant (K3EDTA), stored on ice and centrifuged to prepare plasma within 2 hours of collection. Plasma samples were diluted in Hepes Buffer and deproteinised using CH3CN containing rolipram as internal reference compound for positive ion mode, according standard procedure (20 ng/ml). After vortexing and centrifugation (3000 rpm per 10 min), sample supernatants were transferred in 96 well plate and diluted with water for analysis.
Blood concentrations of the tested compounds and their metabolites were detected through Liquid Chromatography-tandem Mass Spectrometry (QTRAP® 4000 LC-MS/MS System, Sciex). The results for each test compound in plasma were subjected to non-compartmental PK analysis using WinNonlin Phoenix v.6.3 for generation of appropriate PK parameters, reported along with graphical representation of the mean plasma concentration profiles over time.
At 24 hours, animals were sacrificed, and brains were collected and processed for measuring compound concentrations through mass spectrometry.

[3] = test system: OPC-DRG co-cultures; assay: In vitro myelination assay; type: cell-based, rat OPCs, mouse DRG; details: 10 nM; CTRL 100%; mean ± S.E.M.
Experimental: OPC-DRG co-cultures were prepared according to a previously described protocol.
DRG explants from E14.5 mice were directly put in culture after being plucked off from embryo spinal cords. Then, they were grown in Neurobasal medium (Life Technologies) in presence of 100 ng/ml nerve growth factor (NGF, Sigma-Aldrich), and in presence of 10 μM fluorodeoxyuridine (FUDR, Sigma-Aldrich) in order to remove all non-neuronal cells.
Purified primary rat OPCs were obtained from mixed glial cultures by orbital shaking for 3 hours. […]
At day 15, OPC/DRG co-cultures treated with either the selected compounds or the vehicle were fixed and treated with rat anti-MBP (Millipore), mouse anti-SMI 31 and mouse anti-SMI 32 (Cell Signaling), followed by the secondary goat anti-rat/-mouse antibody, conjugated to Alexa Fluor 555 or Alexa Fluor 488 (Life Technologies). The quantification of myelin segments was performed following a previously described protocol with ZEISS LSM Image Browser by acquiring 6 random fields of 4–5 coverslips for each experimental condition. […] The amount of myelin per axon (myelination index) was calculated as the ratio between the white pixels area and the green pixels area. […]

[4] = mouse, sc, plasma, 1 mg/kg s.c. single dose, CD1 male mice

EC50 ([1]; membranes of 1321N1 cells transfected with human GPR17, mean ± SEM of 3 experiments): 1.68 ± 0.1 nM
% Emax (ratio vs Emax of the standard) ([1]; standard LTC4 50 nM set to 100% (¶ compounds)): 104.6%
Emax (% vs basal) ([1]; vs basal, mean ± SEM): 147.5 ± 5.8%
Plasma concentration, individual mice ([2]; 0.50 h, 1 mg/kg s.c., 1 mg/kg): 29.4 ng/mL and 23.0 ng/mL
Plasma concentration, individual mice ([2]; 1.00 h, 1 mg/kg s.c., 1 mg/kg): 25.5 ng/mL and 30.8 ng/mL
Plasma concentration, individual mice ([2]; 2.00 h, 1 mg/kg s.c., 1 mg/kg): 6.2 ng/mL and 13.0 ng/mL and 13.3 ng/mL
Plasma concentration, individual mice ([2]; 4.00 h, 1 mg/kg s.c., 1 mg/kg): 0.7 ng/mL and 2.5 ng/mL and 1.5 ng/mL
concentration at 0.5 h ([2]; male, CD1, mouse, plasma, sc, 1 mg/kg, 0.50 h, 1 mg/kg s.c., n=3 mice, read-out: Plasma concentration, Mean): 23.3 ng/mL
concentration at 0.5 h ([2]; male, CD1, mouse, plasma, sc, 1 mg/kg, 0.50 h, 1 mg/kg s.c., read-out: Plasma concentration, individual mice): 17.4 ng/mL
concentration at 1 h ([2]; male, CD1, mouse, plasma, sc, 1 mg/kg, 1.00 h, 1 mg/kg s.c., n=3 mice, read-out: Plasma concentration, Mean): 25.7 ng/mL
concentration at 1 h ([2]; male, CD1, mouse, plasma, sc, 1 mg/kg, 1.00 h, 1 mg/kg s.c., read-out: Plasma concentration, individual mice): 20.7 ng/mL
concentration at 2 h ([2]; male, CD1, mouse, plasma, sc, 1 mg/kg, 2.00 h, 1 mg/kg s.c., n=3 mice): 10.8 ng/mL
concentration at 4 h ([2]; male, CD1, mouse, plasma, sc, 1 mg/kg, 4.00 h, 1 mg/kg s.c., read-out: Plasma concentration, Mean): 1.6 ng/mL
concentration at 6 h ([2]; male, CD1, mouse, plasma, sc, 1 mg/kg, 6.00 h, 1 mg/kg s.c., read-out: Plasma concentration, individual mice): 0.8 ng/mL
concentration at 4 h ([2]; male, CD1, mouse, plasma, sc, 1 mg/kg, plasma, 1 mg/kg s.c. single dose, CD1 male mice, read-out: Clast): 1 ng/mL
AUC(0-t) [2, 4]: 46.7 ng·h/mL
Cmax [2, 4]: 26.4 ng/mL
Tmax [2, 4]: 1 h
half-life [2, 4]: 45.5 min
Metabolites found in vivo ([2]; plasma after s.c. administration in mice): 5
Tlast ([2]; plasma, 1 mg/kg s.c. single dose, CD1 male mice): 4.00 h
Structure (SMILES): Cc1cccc(NC(=O)CN2C(=O)CC(c3ccccc3)=Nc3ccccc32)c1C [Compound 18]
Myelination Index [3]: 144.7 ± 14.28%
